The assay relates to HIV-1 (H9IIIB strain). Description: Cell-Based HIV Infection Assay Using a Reporter (MT4-GFP cells). To be noted: Human immunodeficiency virus 1, inflection point (IP) of viral growth inhibition; MT4-GFP cells infected with HIV-1 H9IIIB; 50% normal human serum; mean of at least two independent experiments; read-out: Cell Based IP (50% NHS). A digest of the protocol:
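MT4-GFP cells (HIV LTR-driven GFP) bulk-infected with HIV-1 H9IIIB at low MOI for 24 h, washed, then exposed to compounds in RPMI plus 50% normal human serum, 0.4% DMSO. Infected cells counted at 24 and 48 h; R0 = 48 h/24 h ratio, inhibition normalised to DMSO and triple-drug control; IP from 4-parameter fit.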
Regarding `COC(=O)N[C@H](C(=O)Nc1cccc(F)c1CCC1CNC2CCCS(=O)(=O)N1C2)[C@@H](c1ccc(Cl)cc1)C(C)C` (stereo partly drawn) [Example 3, Methyl [(1S,2R)-2-(4-chlorophenyl)-1-({2-[2-(2,2-dioxido-2-thia-1,7-diazabicyclo[4.3.1]dec-9-yl)ethyl]-3-fluorophenyl}carbamoyl)-3-methylbutyl]carbamate], the EC50 worked out at 14 nM.

`N[C@H](C(=O)Nc1cccc(F)c1CCC1CNC2CCCS(=O)(=O)N1C2)[C@@H](c1ccc(Cl)cc1)C1CCC(F)(F)CC1` (stereo partly drawn) [Example 53, (βR)-4-chloro-β-(4,4-difluorocyclohexyl)-N-{2-[2-(2,2-dioxido-2-thia-1,7-diazabicyclo[4.3.1]dec-9-yl)ethyl]-3-fluorophenyl}-L-phenylalaninamide]: the EC50 stood at 24 nM. Under `N[C@H](C(=O)Nc1cccc(F)c1CCC1CNC2CCCS(=O)(=O)N1C2)[C@@H](c1ccc(Cl)cc1)C1CCOC(CC(F)(F)F)C1` (stereo partly drawn) [Example 163, (βR)-4-chloro-N-{2-[2-(2,2-dioxido-2-thia-1,7-diazabicyclo[4.3.1]dec-9-yl)ethyl]-3-fluorophenyl}-β-[2-(2,2,2-trifluoroethyl)telrahydro-2H-pyran-4-yl]-L-phenylalaninamide] stands 19 nM; under `COC(=O)N[C@H](C(=O)Nc1cccc(F)c1CC[C@H]1CN[C@@H]2CCCS(=O)(=O)N1C2)[C@@]1(c2ccc(Cl)cc2)C[C@@H](C)O[C@@H](C)C1` [Example 167, methyl {(1S)-1-[(2R,4r,6S)-4-(4-chlorophenyl)-2,6-dimethyltetrahydro-2H-pyran-4-yl]-2-[(2-{2-[(6R,9S)-2,2-dioxido-2-thia-1,7-diazabicyclo[4.3.1]dec-9-yl]ethyl}-3-fluorophenyl)amino]-2-oxoethyl}carbamate], 27 nM; under `C[C@@H]1CC([C@H](c2ccc(F)cc2)[C@H](N)C(=O)Nc2cccc(C(F)(F)F)c2CC[C@H]2CN[C@@H]3CCCS(=O)(=O)N2C3)C[C@H](C)O1` (stereo partly drawn) [Example 204, (βR)-β-[(2R,6S)-2,6-dimethyltetrahydro-2H-pyran-4-yl]-N-[2-{2-[(6R,9S)-2,2-dioxido-2-thia-1,7-diazabicyclo[4.3.1]dec-9-yl]ethyl}-3-(trifluoromethyl)phenyl]-4-fluoro-L-phenylalaninamide], 230 nM. Under `N[C@H](C(=O)Nc1cccc(F)c1CCC1CNC2CCCS(=O)(=O)N1C2)C(c1ccc(Cl)cc1)c1ccnc(C(F)(F)F)c1` (stereo in doubt) [Example 123, (βR)-4-chloro-N-{2-[2-(2,2-dioxido-2-thia-1,7-diazabicyclo[4.3.1]dec-9-yl)ethyl]-3-fluorophenyl}-β-[2-(trifluoromethyl)pyridin-4-yl]-L-phenylalaninamide] stands 6.8 nM. Under `COC(=O)N[C@H](C(=O)Nc1cccc(F)c1CCC1CNC2CCCS(=O)(=O)N1C2)[C@@H](c1ccc(Cl)cc1)C1CCOCC1` (stereo partly drawn) [Example 37, methyl [(1S,2R)-2-(4-chlorophenyl)-1-({2-[2-(2,2-dioxido-2-thia-1,7-diazabicyclo[4.3.1]dec-9-yl)ethyl]-3-fluorophenyl}carbamoyl)-2-(tetrahydro-2H-pyran-4-yl)ethyl]carbamate] stands 13 nM; under `N[C@H](C(=O)Nc1cccc(F)c1CC[C@H]1CN[C@@H]2CCCS(=O)(=O)N1C2)[C@@H](c1ccc(Cl)cc1)c1csc(C(F)(F)F)n1` [Example 251, (βR)-4-chloro-N-(2-{2-[(6R,9S)-2,2-dioxido-2-thia-1,7-diazabicyclo[4.3.1]dec-9-yl]ethyl}-3-fluorophenyl)-β-[2-(trifluoromethyl)-1,3-thiazol-4-yl]-L-phenylalaninamide], 9.2 nM. Take `N[C@H](C(=O)N[C@H]1CCC[C@@H]1CC[C@H]1CN[C@@H]2CCCS(=O)(=O)N1C2)[C@@H](c1ccc(F)cc1)c1cc(F)cc(F)c1` [Example 57, (βS)-β-(3,5-difluorophenyl)-N-[(1S,2R)-2-{2-[(6R,9S)-2,2-dioxido-2-thia-1,7-diazabicyclo[4.3.1]dec-9-yl]ethyl}cyclopentyl]-4-fluoro-L-phenylalaninamide]: the EC50 was found to be 27 nM. In the case of `COC(=O)N[C@H](C(=O)N[C@H]1CCC[C@@H]1CC[C@H]1CN[C@@H]2CCCS(=O)(=O)N1C2)[C@H](c1cncc(F)c1)c1ccc(Cl)c(F)c1` [Example 77, methyl [(1S,2S)-2-(4-chloro-3-fluorophenyl)-1-{[(1S,2R)-2-{2-[(6R,9S)-2,2-dioxido-2-thia-1,7-diazabicyclo[4.3.1]dec-9-yl]ethyl}cyclopentyl]carbamoyl}-2-(5-fluoropyridin-3-yl)ethyl]carbamate] it was 57 nM.

Regarding `COC(=O)N[C@H](C(=O)Nc1cccc(F)c1CCC1CNC2CCCS(=O)(=O)N1C2)[C@@H](c1ccc(Cl)cc1)c1ccc(OC)nc1` (stereo partly drawn) [Example 47, methyl [(1S,2S)-2-(4-chlorophenyl)-1-({2-[2-(2,2-dioxido-2-thia-1,7-diazabicyclo[4.3.1]dec-9-yl)ethyl]-3-fluorophenyl}carbamoyl)-2-(6-methoxypyridin-3-yl)ethyl]carbamate], the EC50 was determined as 18 nM.

Regarding `CO[C@H]1CC[C@H]([C@H](c2ccc(F)cc2)[C@H](N)C(=O)Nc2ccc(F)c(F)c2CC[C@H]2CN[C@@H]3CCCS(=O)(=O)N2C3)CC1` [Example 180, (βR)-N-(2-{2-[(6R,9S)-2,2-dioxido-2-thia-1,7-diazabicyclo[4.3.1]dec-9-yl]ethyl}-3,4-difluorophenyl)-4-fluoro-β-[(1r,4R)-4-methoxycyclohexyl]-L-phenylalaninamide], the EC50 was 11 nM. In the case of `COC(=O)N[C@H](C(=O)Nc1cccc(F)c1CC[C@H]1CN[C@@H]2CCCS(=O)(=O)N1C2)[C@@H](c1ccc(Cl)cc1)[C@H]1CC[C@H](OC2CC2)CC1` [Example 257, methyl {(1S,2R)-2-(4-chlorophenyl)-2-[(1r,4R)-4-(cyclopropyloxy)cyclohexyl]-1-[(2-{2-[(6R,9S)-2,2-dioxido-2-thia-1,7-diazabicyclo[4.3.1]dec-9-yl]ethyl}-3-fluorophenyl)carbamoyl]ethyl}carbamate] it was 5.6 nM; in that of `COC(=O)N[C@H](C(=O)Nc1cccc(F)c1CC[C@H]1CN[C@@H]2CCCS(=O)(=O)N1C2)[C@]1(c2ccc(Cl)cc2)CC[C@@H](OC)CC1` [Example 13, Methyl {(1S)-1-[trans-1-(4-chlorophenyl)-4-methoxycyclohexyl]-2-[(2-{2-[(6R,9S)-2,2-dioxido-2-thia-1,7-diazabicyclo[4.3.1]dec-9-yl]ethyl}-3-fluorophenyl)amino]-2-oxoethyl}carbamate], 7.6 nM. In the case of `COC(=O)N[C@H](C(=O)Nc1cccc(F)c1CCC1CNC2CCCS(=O)(=O)N1C2)[C@@H](c1ccc(Cl)cc1)C1CCOC(CC(F)(F)F)C1` (stereo partly drawn) [Example 172, methyl {(1S,2R)-2-(4-chlorophenyl)-1-({2-[2-(2,2-dioxido-2-thia-1,7-diazabicyclo[4.3.1]dec-9-yl)ethyl]-3-fluorophenyl}carbamoyl)-2-[2-(2,2,2-trifluoroethyl)tetrahydro-2H-pyran-4-yl]ethyl}carbamate] it was 38 nM; in that of `CC(C)n1cc([C@H](c2ccc(Cl)cc2)[C@H](N)C(=O)Nc2cccc(F)c2CCC2CNC3CCCS(=O)(=O)N2C3)ccc1=O` (stereo partly drawn) [Example 95, (βS)-4-chloro-N-{2-[2-(2,2-dioxido-2-thia-1,7-diazabicyclo[4.3.1]dec-9-yl)ethyl]-3-fluorophenyl}-β-[1-(1-methylethyl)-6-oxo-1,6-dihydropyridin-3-yl]-L-phenylalaninamide], 63 nM. Under `CCOC(=O)N1CCC(c2ccc(Cl)cc2)([C@H](NC(=O)OC)C(=O)Nc2cccc(F)c2CC[C@H]2CN[C@@H]3CCCS(=O)(=O)N2C3)CC1` [Example 255, ethyl 4-(4-chlorophenyl)-4-{(1S)-2-[(2-{2-[(6R,9S)-2,2-dioxido-2-thia-1,7-diazabicyclo[4.3.1]dec-9-yl]ethyl}-3-fluorophenyl)amino]-1-[(methoxycarbonyl)amino]-2-oxoethyl}piperidine-1-carboxylate] stands 18 nM; under `C[C@@H]1CC([C@H](c2ccc(Cl)cc2)[C@H](N)C(=O)N[C@H]2CCC[C@@H]2CC[C@H]2CN[C@@H]3CCCS(=O)(=O)N2C3)C[C@H](C)O1` (stereo partly drawn) [Example 196, (βR)-4-chloro-β-[(2R,4s,6S)-2,6-dimethyltetrahydro-2H-pyran-4-yl]-N-[(1S,2R)-2-{2-[(6R,9S)-2,2-dioxido-2-thia-1,7-diazabicyclo[4.3.1]dec-9-yl]ethyl}cyclopentyl]-L-phenylalaninamide], 120 nM; under `N[C@H](C(=O)N[C@H]1CCCC[C@@H]1CC[C@H]1CN[C@@H]2CCCS(=O)(=O)N1C2)[C@@H](c1ccc(Cl)cc1)C1CCOCC1` [Example 24, (βR)-4-Chloro-N-[(1S,2R)-2-{2-[(6R,9S)-2,2-dioxido-2-thia-1,7-diazabicyclo[4.3.1]dec-9-yl]ethyl}cyclohexyl]-β-(tetrahydro-2H-pyran-4-yl)-L-phenylalaninamide], 13 nM.

Regarding `COC(=O)N[C@H](C(=O)N[C@H]1CCCC[C@@H]1CC[C@H]1CN[C@@H]2CCCS(=O)(=O)N1C2)[C@@H](c1ccc(Cl)cc1)C(C)C` [Example 96, methyl [(1S,2S)-2-(4-chlorophenyl)-1-{[(1S,2R)-2-{2-[(6R,9S)-2,2-dioxido-2-thia-1,7-diazabicycIo[4.3.1]dec-9-yl]ethyl}cyclohexyl]carbamoyl}-3-methylbutyl]carbamate], the EC50 came to 180 nM. In the case of `COC(=O)N[C@H](C(=O)Nc1cccc(F)c1CC[C@H]1CN[C@@H]2CCCS(=O)(=O)N1C2)[C@@H](c1ccc(Cl)cc1)[C@H]1CC[C@H](OC)CC1` [Example 187, methyl {(1S,2R)-2-(4-chlorophenyl)-1-[(2-{2-[(6R,9S)-2,2-dioxido-2-thia-1,7-diazabicyclo[4.3.1]dec-9-yl]ethyl}-3-fluorophenyl)carbamoyl]-2-[(1r,4R)-4-methoxycyclohexyl]ethyl}carbamate] it was 3.2 nM.

For the origin of these results see patent US10138255B2, “Piperazine derivatives as HIV protease inhibitors” (Merck Sharp & Dohme Corp., priority 2014, dated 2018).
